Results reported in publication PMC5218480 (PLoS ONE, 2017).

System: MV-4-11 cells
Assay: Gene expression microarray analysis (Affymetrix PrimeView) and GSEA
Format: cell-based, human
Set-up: RFU PODN (11730768_x_at) / Fold change /veh PODN (11730768_x_at) / RFU LINC00158 (11744669_a_at) / Fold change /veh LINC00158 (11744669_a_at) / RFU DUSP10 (11751237_a_at) / Fold change /veh DUSP10 (11751237_a_at) / RFU ID3 (11757404_x_at) / Fold change /veh ID3 (11757404_x_at) / RFU PLEKHG5 (11737974_s_at) / Fold change /veh PLEKHG5 (11737974_s_at) / RFU LRRC4B (11730491_at) / Fold change /veh LRRC4B (11730491_at) / RFU GIMAP4 (11747438_a_at) / Fold change /veh GIMAP4 (11747438_a_at) / RFU KRT8 (11758183_x_at) / Fold change /veh KRT8 (11758183_x_at) / RFU CNN1 (11734310_a_at) / Fold change /veh CNN1 (11734310_a_at) / RFU VPS37D (11726825_at) / Fold change /veh VPS37D (11726825_at) / RFU C10orf10 (11716522_x_at) / Fold change /veh C10orf10 (11716522_x_at) / RFU KIR2DL2 /// KIR2DL4 /// KIR2DL5A /// KIR2DL5B /// KIR2DS1 /// KIR2DS2 /// KIR2DS3 /// KIR2DS4 /// KIR3DL3 /// KIR3DL3 /// KIR3DS1 (11738374_at) / Fold change /veh KIR2DL2 /// KIR2DL4 /// KIR2DL5A /// KIR2DL5B /// KIR2DS1 /// KIR2DS2 /// KIR2DS3 /// KIR2DS4 /// KIR3DL3 /// KIR3DL3 /// KIR3DS1 (11738374_at) / RFU C1QL1 (11718748_at) / Fold change /veh C1QL1 (11718748_at) / RFU TMPRSS4 (11747572_a_at) / Fold change /veh TMPRSS4 (11747572_a_at) / RFU HAMP (11756126_x_at) / Fold change /veh HAMP (11756126_x_at) / RFU RNFT2 (11725882_a_at) / Fold change /veh RNFT2 (11725882_a_at) / RFU NR4A2 (11747474_a_at) / Fold change /veh NR4A2 (11747474_a_at) / RFU ABCC12 (11746883_a_at) / Fold change /veh ABCC12 (11746883_a_at) / RFU TMEM136 (11760407_x_at) / Fold change /veh TMEM136 (11760407_x_at) / RFU CLDN22 /// WWC2 (11732394_at) / Fold change /veh CLDN22 /// WWC2 (11732394_at) / RFU HLA-DPB1 (11760878_x_at) / Fold change /veh HLA-DPB1 (11760878_x_at) / RFU SPINT1 (11716480_a_at) / Fold change /veh SPINT1 (11716480_a_at) / RFU GAP43 (11754022_s_at) / Fold change /veh GAP43 (11754022_s_at) / RFU A4GNT (11735810_at) / Fold change /veh A4GNT (11735810_at) / RFU PRB3 (11715151_x_at) / Fold change /veh PRB3 (11715151_x_at) / RFU TUBB4B (11761932_at) / Fold change /veh TUBB4B (11761932_at) / RFU CAPN14 (11732068_a_at) / Fold change /veh CAPN14 (11732068_a_at) / RFU TMCC2 (11721928_a_at) / Fold change /veh TMCC2 (11721928_a_at) / RFU IRGQ (11745062_a_at) / Fold change /veh IRGQ (11745062_a_at) / RFU FAM174B (11720279_a_at) / Fold change /veh FAM174B (11720279_a_at) / RFU TMPRSS4 (11748680_a_at) / Fold change /veh TMPRSS4 (11748680_a_at) / RFU FAM212B (11763350_a_at) / Fold change /veh FAM212B (11763350_a_at) / RFU PLEKHG5 (11743358_a_at) / Fold change /veh PLEKHG5 (11743358_a_at) / RFU ZSCAN30 (11745921_a_at) / Fold change /veh ZSCAN30 (11745921_a_at) / RFU CMKLR1 (11741424_a_at) / Fold change /veh CMKLR1 (11741424_a_at) / RFU LOC101060620 /// MAPK8IP1 (11723275_at) / Fold change /veh LOC101060620 /// MAPK8IP1 (11723275_at) / RFU SPTSSB (11747773_x_at) / Fold change /veh SPTSSB (11747773_x_at) / RFU PRSS12 (11739890_at) / Fold change /veh PRSS12 (11739890_at) / RFU BIN1 (11741810_x_at) / Fold change /veh BIN1 (11741810_x_at) / RFU WNT11 (11732464_a_at) / Fold change /veh WNT11 (11732464_a_at) / RFU C10orf10 (11716521_a_at) / Fold change /veh C10orf10 (11716521_a_at) / RFU C5orf56 (11738089_at) / Fold change /veh C5orf56 (11738089_at) / RFU CYB561 (11721691_x_at) / Fold change /veh CYB561 (11721691_x_at) / RFU ANKRD19P (11752326_a_at) / Fold change /veh ANKRD19P (11752326_a_at) / RFU OR2T12 /// OR2T33 /// OR2T8 (11738714_s_at) / Fold change /veh OR2T12 /// OR2T33 /// OR2T8 (11738714_s_at) / RFU VCAN (11748164_a_at) / Fold change /veh VCAN (11748164_a_at) / RFU JSRP1 (11732532_at) / Fold change /veh JSRP1 (11732532_at) / RFU KRTAP10-11 (11738290_x_at) / Fold change /veh KRTAP10-11 (11738290_x_at) / RFU MYO3A (11730013_a_at) / Fold change /veh MYO3A (11730013_a_at) / RFU EBF3 (11725865_a_at) / Fold change /veh EBF3 (11725865_a_at) / RFU CAMK2N1 (11719241_x_at) / Fold change /veh CAMK2N1 (11719241_x_at) / RFU C5orf56 (11738088_a_at) / Fold change /veh C5orf56 (11738088_a_at) / RFU OLFML3 (11715873_a_at) / Fold change /veh OLFML3 (11715873_a_at) / RFU LOC100653217 /// NTM (11731650_a_at) / Fold change /veh LOC100653217 /// NTM (11731650_a_at) / RFU MAPK11 (11762145_a_at) / Fold change /veh MAPK11 (11762145_a_at) / RFU FIZ1 (11724087_x_at) / Fold change /veh FIZ1 (11724087_x_at) / RFU OASL (11726364_x_at) / Fold change /veh OASL (11726364_x_at) / RFU SOX15 (11748057_x_at) / Fold change /veh SOX15 (11748057_x_at) / RFU CD79A (11719716_a_at) / Fold change /veh CD79A (11719716_a_at) / RFU HIST1H1D (11736915_at) / Fold change /veh HIST1H1D (11736915_at) / RFU CASKIN2 (11723855_a_at) / Fold change /veh CASKIN2 (11723855_a_at) / RFU LOC730098 (11760151_x_at) / Fold change /veh LOC730098 (11760151_x_at) / RFU OR4N2 (11742367_at) / Fold change /veh OR4N2 (11742367_at) / RFU PRRT2 (11749266_a_at) / Fold change /veh PRRT2 (11749266_a_at) / RFU SNX32 (11753110_a_at) / Fold change /veh SNX32 (11753110_a_at) / RFU CDHR5 (11726645_a_at) / Fold change /veh CDHR5 (11726645_a_at) / RFU RCAN1 (11760418_a_at) / Fold change /veh RCAN1 (11760418_a_at) / RFU FAM167A (11723789_a_at) / Fold change /veh FAM167A (11723789_a_at) / RFU FAM26E (11764081_at) / Fold change /veh FAM26E (11764081_at) / RFU ISYNA1 (11749810_s_at) / Fold change /veh ISYNA1 (11749810_s_at) / RFU ACY1 (11761880_at) / Fold change /veh ACY1 (11761880_at) / RFU 11764098_at / Fold change /veh 11764098_at / RFU SAMD14 (11745864_x_at) / Fold change /veh SAMD14 (11745864_x_at) / RFU NPB (11741838_a_at) / Fold change /veh NPB (11741838_a_at) / RFU TMPRSS6 (11731388_a_at) / Fold change /veh TMPRSS6 (11731388_a_at) / RFU KRTAP10-2 (11738614_at) / Fold change /veh KRTAP10-2 (11738614_at) / RFU ARHGAP8 /// PRR5-ARHGAP8 (11727945_x_at) / Fold change /veh ARHGAP8 /// PRR5-ARHGAP8 (11727945_x_at) / RFU KRTAP5-7 /// NADSYN1 (11734609_at) / Fold change /veh KRTAP5-7 /// NADSYN1 (11734609_at) / RFU RASL12 (11751679_a_at) / Fold change /veh RASL12 (11751679_a_at) / RFU CDKN2B (11736163_a_at) / Fold change /veh CDKN2B (11736163_a_at) / RFU PRF1 (11729649_at) / Fold change /veh PRF1 (11729649_at) / RFU, ZNF638 /// ZNF638-IT1 / Fold change vs veh, ZNF638 /// ZNF638-IT1 / RFU, PANK3 / Fold change vs veh, PANK3 / RFU, SH3YL1 / Fold change vs veh, SH3YL1 / RFU, ZEB2 / Fold change vs veh, ZEB2 / RFU, NRIP1 / Fold change vs veh, NRIP1 / RFU, PTTG1IP / Fold change vs veh, PTTG1IP / RFU, CAPN2 / Fold change vs veh, CAPN2 / RFU, MED14 / Fold change vs veh, MED14 / RFU, SNORA58 / Fold change vs veh, SNORA58 / RFU, C1orf63 / Fold change vs veh, C1orf63 / RFU, LRRFIP1 / Fold change vs veh, LRRFIP1 / RFU, NDUFAF7 / Fold change vs veh, NDUFAF7 / RFU, SLC12A2 / Fold change vs veh, SLC12A2 / RFU, IBTK / Fold change vs veh, IBTK / RFU, ESF1 / Fold change vs veh, ESF1 / Fold change vs veh, TMEM50B / RFU, TAOK1 / Fold change vs veh, TAOK1 / RFU, ACBD3 / Fold change vs veh, ACBD3 / RFU, TMA16 / Fold change vs veh, TMA16 / RFU, RWDD3 / Fold change vs veh, RWDD3 / RFU, BCAT1 / Fold change vs veh, BCAT1 / RFU, EDEM3 / Fold change vs veh, EDEM3 / RFU, TMEM33 / Fold change vs veh, TMEM33 / RFU, WDR75 / Fold change vs veh, WDR75 / RFU, AHCTF1 / Fold change vs veh, AHCTF1 / RFU, TFRC / Fold change vs veh, TFRC / RFU, ZDHHC17 / Fold change vs veh, ZDHHC17 / RFU, NOM1 / Fold change vs veh, NOM1 / RFU, ARL8B / Fold change vs veh, ARL8B / RFU, ZBTB11 / Fold change vs veh, ZBTB11 / RFU, TAMM41 / Fold change vs veh, TAMM41 / RFU, KIAA1704 /// LOC100996395 / Fold change vs veh, KIAA1704 /// LOC100996395 / RFU, ING1 / Fold change vs veh, ING1 / RFU, TRMT61B / Fold change vs veh, TRMT61B / RFU, FUBP3 / Fold change vs veh, FUBP3 / RFU, TP53 / Fold change vs veh, TP53 / RFU, TNKS2 / Fold change vs veh, TNKS2 / RFU, ZFP14 / Fold change vs veh, ZFP14 / RFU, ACTR2 / Fold change vs veh, ACTR2 / RFU, PPP3R1 / Fold change vs veh, PPP3R1 / RFU, PIK3R1 / Fold change vs veh, PIK3R1 / RFU, HNRNPA1 / Fold change vs veh, HNRNPA1 / RFU, RNF170 / Fold change vs veh, RNF170 / RFU, ZNF28 / Fold change vs veh, ZNF28 / RFU, RNGTT / Fold change vs veh, RNGTT / RFU, OGT / Fold change vs veh, OGT / RFU, BRD1 / Fold change vs veh, BRD1 / RFU, MARS / Fold change vs veh, MARS / RFU, ZNF655 / Fold change vs veh, ZNF655 / RFU, FAHD1 / Fold change vs veh, FAHD1 / RFU, BDP1 / Fold change vs veh, BDP1 / RFU, LRRCC1 / Fold change vs veh, LRRCC1 / RFU, ARID1A / Fold change vs veh, ARID1A / RFU, ZNF146 / Fold change vs veh, ZNF146 / RFU, ZNF330 / Fold change vs veh, ZNF330 / RFU, GPN3 / Fold change vs veh, GPN3 / RFU, C9orf123 / Fold change vs veh, C9orf123 / RFU, N4BP2L2 / Fold change vs veh, N4BP2L2 / RFU, ARFIP1 / Fold change vs veh, ARFIP1 / RFU, FAM179B / Fold change vs veh, FAM179B / RFU, BCL10 / Fold change vs veh, BCL10 / RFU, UHRF1BP1L / Fold change vs veh, UHRF1BP1L / RFU, BET1 / Fold change vs veh, BET1 / RFU, CNOT2 / Fold change vs veh, CNOT2 / RFU, ZNF268 / Fold change vs veh, ZNF268 / Fold change vs veh, ZNF507 / RFU, DGCR2 / Fold change vs veh, DGCR2 / RFU, WDSUB1 / Fold change vs veh, WDSUB1 / Fold change vs veh, HSP90B1 /// MIR3652 / RFU, ADSS / Fold change vs veh, ADSS / RFU, GK / Fold change vs veh, GK / RFU, ZNF148 / Fold change vs veh, ZNF148 / RFU, TAF9 / Fold change vs veh, TAF9 / RFU, SLC1A5 / Fold change vs veh, SLC1A5 / RFU, SLMO2 / Fold change vs veh, SLMO2 / RFU, ABCC4 / Fold change vs veh, ABCC4 / RFU, LOC101060439 /// RAP1B / Fold change vs veh, LOC101060439 /// RAP1B / RFU, RFX7 / Fold change vs veh, RFX7 / RFU, GTPBP10 / Fold change vs veh, GTPBP10 / RFU, CNEP1R1 / Fold change vs veh, CNEP1R1 / RFU, BIVM-ERCC5 /// ERCC5 / Fold change vs veh, BIVM-ERCC5 /// ERCC5 / RFU, ILF3 / Fold change vs veh, ILF3 / RFU 11762660_at / Fold change /veh 11762660_at / RFU VCAN (11757783_s_at) / Fold change /veh VCAN (11757783_s_at) / RFU DDX43 (11728927_at) / Fold change /veh DDX43 (11728927_at) / RFU KRT8 (11758188_x_at) / Fold change /veh KRT8 (11758188_x_at) / RFU NKD1 (11759106_at) / Fold change /veh NKD1 (11759106_at) / RFU SRD5A1 (11742802_a_at) / Fold change /veh SRD5A1 (11742802_a_at) / RFU TPSAB1 /// TPSB2 (11721975_s_at) / Fold change /veh TPSAB1 /// TPSB2 (11721975_s_at) / RFU GSTM3 (11746129_a_at) / Fold change /veh GSTM3 (11746129_a_at) / RFU IL23R (11737362_x_at) / Fold change /veh IL23R (11737362_x_at) / RFU TMEM51 (11727254_a_at) / Fold change /veh TMEM51 (11727254_a_at) / RFU PIWIL2 (11732686_x_at) / Fold change /veh PIWIL2 (11732686_x_at) / RFU ORM1 (11744905_x_at) / Fold change /veh ORM1 (11744905_x_at) / RFU CCDC152 (11743942_at) / Fold change /veh CCDC152 (11743942_at) / RFU ECM1 (11717891_a_at) / Fold change /veh ECM1 (11717891_a_at) / RFU IL23R (11748794_a_at) / Fold change /veh IL23R (11748794_a_at) / RFU TNFAIP8L3 (11732012_x_at) / Fold change /veh TNFAIP8L3 (11732012_x_at) / RFU MBOAT4 (11741988_at) / Fold change /veh MBOAT4 (11741988_at) / RFU 11764193_at / Fold change /veh 11764193_at / RFU TMEM53 (11763286_at) / Fold change /veh TMEM53 (11763286_at) / RFU MAGEB2 (11727129_at) / Fold change /veh MAGEB2 (11727129_at) / RFU TMEM200A (11744735_a_at) / Fold change /veh TMEM200A (11744735_a_at) / RFU CCDC152 (11751479_a_at) / Fold change /veh CCDC152 (11751479_a_at) / RFU FAM211A (11726209_a_at) / Fold change /veh FAM211A (11726209_a_at) / RFU RGS16 (11746705_a_at) / Fold change /veh RGS16 (11746705_a_at) / RFU VCAN (11755009_s_at) / Fold change /veh VCAN (11755009_s_at) / RFU RHOB (11743442_s_at) / Fold change /veh RHOB (11743442_s_at) / RFU RGS16 (11720943_a_at) / Fold change /veh RGS16 (11720943_a_at) / RFU RGS16 (11720944_at) / Fold change /veh RGS16 (11720944_at) / RFU, VPS4B / Fold change vs veh, VPS4B / RFU, CREB1 / Fold change vs veh, CREB1 / RFU, DNAJC13 / Fold change vs veh, DNAJC13 / RFU, GNAQ / Fold change vs veh, GNAQ / RFU, CDK5R1 / Fold change vs veh, CDK5R1 / RFU, ZRANB3 / Fold change vs veh, ZRANB3 / RFU, CUL4A / Fold change vs veh, CUL4A / RFU, CCNY / Fold change vs veh, CCNY / RFU, UFL1 / Fold change vs veh, UFL1 / RFU, COG3 / Fold change vs veh, COG3 / RFU, DIAPH2 / Fold change vs veh, DIAPH2 / RFU, SKA2 / Fold change vs veh, SKA2 / RFU, AFF3 / Fold change vs veh, AFF3 / RFU, LMF1 / Fold change vs veh, LMF1 / RFU, IPO11 / Fold change vs veh, IPO11 / RFU, DFFB / Fold change vs veh, DFFB / RFU, FOXP1 / Fold change vs veh, FOXP1 / RFU, CARD8 / Fold change vs veh, CARD8 / RFU, STRN3 / Fold change vs veh, STRN3 / RFU, ADK / Fold change vs veh, ADK / RFU, RASSF2 / Fold change vs veh, RASSF2 / RFU, WIPF1 / Fold change vs veh, WIPF1 / RFU, LARP1B / Fold change vs veh, LARP1B / RFU, RASA1 / Fold change vs veh, RASA1 / RFU, RB1 / Fold change vs veh, RB1 / RFU, PPFIA1 / Fold change vs veh, PPFIA1 / RFU, MAT2A / Fold change vs veh, MAT2A / RFU, CCT5 / Fold change vs veh, CCT5 / RFU, WDR92 / Fold change vs veh, WDR92 / RFU, CUX1 / Fold change vs veh, CUX1 / RFU, TTC7A / Fold change vs veh, TTC7A / RFU, TMEM135 / Fold change vs veh, TMEM135 / RFU, DEPTOR / Fold change vs veh, DEPTOR / RFU, CPM / Fold change vs veh, CPM / RFU, DNAJB6 / Fold change vs veh, DNAJB6 / RFU, CACNA2D3 / Fold change vs veh, CACNA2D3 / RFU, DTX4 / Fold change vs veh, DTX4 / RFU, TFCP2 / Fold change vs veh, TFCP2 / RFU, GMCL1 /// GMCL1P1 / Fold change vs veh, GMCL1 /// GMCL1P1 / RFU, AEBP2 / Fold change vs veh, AEBP2 / RFU, SNHG1 /// SNORD22 /// SNORD25 /// SNORD26 /// SNORD27 /// SNORD28 /// SNORD29 /// SNORD31 / Fold change vs veh, SNHG1 /// SNORD22 /// SNORD25 /// SNORD26 /// SNORD27 /// SNORD28 /// SNORD29 /// SNORD31 / Fold change (Aza/veh), C12orf56 (ProbeSet 11735607_a_at) / Fold change (ACY-1035/veh), C12orf56 (ProbeSet 11735607_a_at) / Fold change (Aza/veh), FGFR1OP (ProbeSet 11751329_s_at) / Fold change (ACY-1035/veh), FGFR1OP (ProbeSet 11751329_s_at) / Fold change (Aza/veh), VPS36 (ProbeSet 11739960_a_at) / Fold change (ACY-1035/veh), VPS36 (ProbeSet 11739960_a_at) / RFU SYPL1 (11715823_x_at) / Fold change /veh SYPL1 (11715823_x_at) / RFU IGFBP7 (11715501_s_at) / Fold change /veh IGFBP7 (11715501_s_at) / RFU REEP3 (11722064_at) / Fold change /veh REEP3 (11722064_at) / RFU IGLL1 (11728026_x_at) / Fold change /veh IGLL1 (11728026_x_at): dose or concentration left out as unconfirmed
Conditions: ProbeSet 11716931_at; LIST B

## Nc1ncn([C@@H]2O[C@H](CO)[C@@H](O)[C@H]2O)c(=O)n1 [azacitidine]
  Fold change vs veh, DGCR2: 0.93
